# Key:
# [1] = system: tactile allodynia in allodynic rats; assay: Tactile allodynia test (von Frey filaments, paw withdrawal threshold) in CCI (Bennett model) rats; assay type: in vivo, rat
# Description: Bennett Model: In this model, approximately 0.8 cm of the left sciatic nerve was exposed and freed with sharpened scissors at middle-thigh level as described by Bennett and Xie.^[76] Four ligatures were placed loosely around the sciatic nerve with 4-0 chromic catgut, with 1 mm space between the ties, which compresses the nerve but epineural blood circulation is preserved. The tissue and skin were closed in layers. […] Most allodynia was seen during the time period of 7-14 days after the surgery.
# Intrathecal catheter installation: A PE10 catheter, stretched to a somewhat thinner diameter in the distal part, was introduced into the spinal canal (subarachnoid space) via a 21 G (gauge) cannula between the L5 and L6 lamina and advanced to the lumbar enlargement in rats. The proximal part was tunneled under the skin and led out on the upper dorsal region. The location of the catheter was verified by the injection of 6 μl (50 mg/ml) xylocalne, such that a transient, flaccid paralysis of the legs was produced, and by X-ray after administration of 10 μl iodine contrast medium (Astra, Sweden). The catheter could be kept for up to two weeks in animals.^[79]
# The maximum volume injected at any one time was 10 μl.^[79]
# Tactile allodynia test: In a transparent glass chamber (20×20 cm) with a mesh net floor, each animal was subjected to the tactile allodynia test. A positive response is when an innocuous tactile stimulus induces a brief paw withdrawal away from the stimulation, similar to a paw withdrawal due to heat. A set of von Frey filaments from 0.01 to 28 g (Stoelting Co., Wood Dale, Ill.) were applied to the mid-paw of the allodynic rats at 1 gram, and then progressing up or down. The filament was pressed against the plantar surface for 1 to 2 seconds until it bent. Subsequent applications were made with a higher or lower von Frey filament depending on the animal response. The testing always began with normal paws. If a filament induced a brief paw withdrawal of a paw without bending in three out of five tests, the size of the filament was recorded as eliciting a positive withdrawal threshold.^[80] Allodynia was considered to be present when a withdrawal threshold was evoked by a filament corresponding to 8 grams or less.
# (§1) In rats with tactile allodynia (a withdrawal threshold with a filament below 8 g), an intrathecal catheter (PE 10) was installed and linked to an osmotic pump (Alzet) in a 37° C. water bath. Following a bolus injection of SCP-1 (30 nmol/kg, 10 μl), agrin siRNA (100 nM) was intrathecally administered continuously by the pump at a rate of 5 μl/1 hour for 4 hr. The animals were subjected to von Frey filament test every 15 min for 4 hr to determine whether the effects of SCP-1 on allodynia suppression are blocked by agrin siRNA. A control siRNA (nFsiRNA) was applied in the same way. The behavioral data was analyzed for agrin effects. Immediately after behavioral experiments, the animals were sacrificed and subjected to protein extraction of lumbar spinal cord, followed by Western-blot analysis as described above.
# A blind test was designed for intrathecal drug evaluations. Five days after CCI, rats were subjected to tactile allodynia tests with von Frey filaments. If a filament corresponding to 8 grams or less evoked a withdrawal response on the rat paw (at least 3 responses out of 5 stimuli), the value was designated as the allodynia threshold. […] Either a drug (100 nmol in 10 μl saline) or vehicle (only 10 μl saline) was pre-warmed and intrathecally injected into the allodynic rats. Then the rats were assayed for changes in allodynic and hyperalgesic behavior, agrin gene expression, and agrin protein changes. In addition, distribution and amount of agrin in the dorsal horn were visualized using immunostaining of L5 as reported above in Example 7.
# agrin protein = assay: Western blot of agrin protein in L3-5 spinal cord; assay type: in vivo, rat
# Description: Western blot for detecting protein expression of agrin: Agrin protein was analyzed from L3-5 spinal cord with Western blot as described below at times of 1 day, 3 days, and 7 days post-surgery. The changes in these proteins between sham-operated, nerve-injured (no drug), and nerve-injured (pre-emptive drug) groups were analyzed.
# Agrin Protein Extraction: The rats were deeply anesthetized with isoflurane and decapitated. Spinal cord L3-5 was quickly removed and immediately placed into tissue lysis buffer (1 ml, Sigma Co., St. Louis, Mo.) that contained protein enzyme inhibitors (1:100, Halt, Pierce). The tissue was homogenized for 2 min and incubated on ice for 45 min. The sample was then centrifuged at 10,000×g for 30 min at 4° C. The supernatant was transferred to a new tube and centrifuged again for further clarifying. The concentration of the protein was determined by an Agilent's Bio-Rad protein chip (Agilent's 2100 bioanalyzer, Santa Clara, Calif.) and by the […] (reagents from Bio-Rad).
# Western blot: Protein (20 μg) from each sample was mixed with 2× electrophoresis buffer and boiled for 5 min. The samples, along with a negative control, were loaded on 4-15% acrylamide tris-glycine SDS gels and electrophoresed in a cell (Bio-Rad) for approximately 1 hr. A Hybond-P polyvinylidene difluoride membrane (Bio-Rad, Hercules, Calif.) was used for transferring the protein in a mini-trans-blot transfer cell (Bio-Rad) for 2 hr. The membrane was then soaked in 2% milk for 1 hour and probed with monoclonal agrin antibody (Agr510 and Agr530, 1:5000, StressGen Biotechnologies Corp., Victoria, Canada) or β-actin antibody (1:5000) at 4° C. overnight with continual shaking. The following day goat anti-mouse secondary antibody conjugated to Alexa Fluor680 (1:5000, Molecular Probe) was added to the membrane and incubated for 1 hr at room temperature. The samples were washed three times with TBS buffer (Tris Buffered Saline, DAKO, Carpinteria, Calif.) between steps. The membrane was then scanned with an Odyssey (LI-COR) scanner and analyzed by Odyssey software (Li-Cor, Lincoln, Nebr.).
# as §1, with “Immediately after behavioral experiments, the animals were sacrificed and subjected to protein extraction of lumbar spinal cord, followed by Western-blot analysis as described above.” left out
smiles,measurement,setting,value
O=C(CN1C(=O)c2ccccc2S1(=O)=O)Nc1ccc(O)cc1 [SCP-1],time to normalized withdrawal threshold,[1]; Example 9: SCP-1 alone,about one hour after injection
same,effect on withdrawal threshold,"[1]; Example 9: injected 7 days after CCI, SCP-1 alone, up to 4 h",normalized the withdrawal threshold
same,duration of effect on withdrawal threshold,[1]; intrathecal 100 nmol in 10 μl,up to 8 hr
same,time to normal withdrawal threshold,[1]; intrathecal 100 nmol in 10 μl,about an hour after injection
same,effect on paw-withdrawal threshold,"[1]; intrathecal 100 nmol in 10 μl in allodynic rats, day 7 after injury, up to 8 hr",raised the withdrawal threshold to normal values
same,effect on tactile allodynia,"[1]; intrathecal 100 nmol, day 7 after injury",suppressed the tactile allodynia
same,agrin protein level,"agrin protein; allodynic rats, 2 h post-SCP-1 injection",up-regulated to a normal level
same,agrin protein,"agrin protein; pre-emptive intrathecal injection prior to CCI, 3 and 7 days",did not decrease

# From patent publication US20100004171A1, “Therapeutic Methods for Neuropathic Pain” (priority 2006, published 2010)
